One test addresses yeast HSP90 (Saccharomyces cerevisiae, UniProt P02829). The test is described as follows: Hsp90 ATPase assay (malachite green). It counts as biochemical. On the procedure: (§1) For present invention, the ATPase activity of yeast HSP90 was measured using malachite green assay. Formula I compounds for primary antitumoral activity were treated in human colorectal cancer cells (HCT116) showing increased expression levels of HSP90 client protein and cotoxicity IC50 values was measured as a result.

Test [1] deals with human colorectal cancer cells (HCT116). The test is described as follows: Growth inhibition assay (cytotoxicity) in HCT116. The note with it: HCT-116. It counts as cell-based. On the procedure: as §1

Some results are limits rather than exact numbers.

Sequence of yeast HSP90 (P02829 whole entry): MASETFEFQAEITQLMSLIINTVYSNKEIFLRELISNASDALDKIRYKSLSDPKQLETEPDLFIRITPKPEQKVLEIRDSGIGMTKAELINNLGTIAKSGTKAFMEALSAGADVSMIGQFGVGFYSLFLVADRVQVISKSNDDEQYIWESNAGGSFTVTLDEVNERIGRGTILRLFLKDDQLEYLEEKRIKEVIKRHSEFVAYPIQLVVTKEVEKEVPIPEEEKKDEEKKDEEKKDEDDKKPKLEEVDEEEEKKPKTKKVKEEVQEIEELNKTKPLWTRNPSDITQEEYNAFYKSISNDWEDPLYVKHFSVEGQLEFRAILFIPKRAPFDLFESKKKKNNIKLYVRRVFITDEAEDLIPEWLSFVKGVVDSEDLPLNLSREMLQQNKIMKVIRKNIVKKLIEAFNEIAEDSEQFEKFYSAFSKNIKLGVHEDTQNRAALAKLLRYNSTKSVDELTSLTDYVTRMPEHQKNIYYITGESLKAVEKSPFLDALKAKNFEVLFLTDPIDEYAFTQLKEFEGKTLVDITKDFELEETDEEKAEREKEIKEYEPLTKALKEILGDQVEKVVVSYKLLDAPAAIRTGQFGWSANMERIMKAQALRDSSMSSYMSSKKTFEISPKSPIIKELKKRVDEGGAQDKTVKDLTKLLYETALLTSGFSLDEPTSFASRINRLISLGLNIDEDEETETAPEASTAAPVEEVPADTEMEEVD

In general, IC50 refers to the concentration that inhibits the measured activity by half. A higher IC50 goes with weaker potency in that assay. With `CCNC(=O)c1noc(-c2cc(C(C)C)c(O)cc2O)c1-c1cc(CN2CCOCC2)no1` [Compound I-18, 5-(2,4-Dihydroxy-5-isopropylphenyl)-N-ethyl-3′-(morpholinomethyl)-4,5′-biisoxazole-3-carboxamide], the values for the IC50 (against yeast HSP90; in test [1]) were 500 to 1000 nM and below 500 nM, respectively.
On the same counts, the results for `CCNC(=O)c1noc(-c2cc(C(C)C)c(O)cc2O)c1-c1noc(CN(C)C)n1` [Compound I-93, 5-(2,4-Dihydroxy-5-isopropylphenyl)-4-(5-((dimethylamino)methyl)-1,2,4-oxadiazol-3-yl)-N-ethylisoxazole-3-carboxamide] are 500 to 1000 nM and below 500 nM.
On the same counts, the results for `CCNC(=O)c1noc(-c2cc(C(C)C)c(O)cc2O)c1-c1noc(C(=O)OC)n1` [Compound I-58, Methyl 3-(5-(2,4-dihydroxy-5-isopropylphenyl)-3-(ethylcarbamoyl)isoxazol-4-yl)-1,2,4-oxadiazole-5-carboxylate] are 500 to 1000 nM and above 1000 nM.
On the same counts, the results for `CCNC(=O)c1noc(-c2cc(C(C)C)c(O)cc2O)c1-c1ccsc1CN1CCOCC1` [Compound I-2, 5-(2,4-Dihydroxy-5-isopropylphenyl)-N-ethyl-4-(2-(morpholinomethyl)thiophen-3-yl)isoxazole-3-carboxamide] are above 1000 nM and below 500 nM.
In the case of `CCNC(=O)c1noc(-c2cc(C(C)C)c(O)cc2O)c1-c1cc(CNCCO)no1` [Compound I-22, 5-(2,4-Dihydroxy-5-isopropylphenyl)-N-ethyl-3′-((2-hydroxyethylamino)methyl)-4,5′-biisoxazole-3-carboxamide], the IC50 at yeast HSP90 was 500 to 1000 nM; in test [1], below 500 nM.
For `CCNC(=O)c1noc(-c2cc(C(C)C)c(O)cc2O)c1-c1noc(OC)n1` [Compound I-86, 5-(2,4-Dihydroxy-5-isopropylphenyl)-N-ethyl-4-(5-methoxy-1,2,4-oxadiazol-3-yl)isoxazole-3-carboxamide], in that order: 500 to 1000 nM and below 500 nM.
On the same counts, the results for `CCNC(=O)c1noc(-c2cc(C(C)C)c(O)cc2O)c1-c1cc(C(=O)NC)no1` [Compound I-56, 5-(2,4-Dihydroxy-5-isopropylphenyl)-N^3-ethyl-N^3′-methyl-4,5′-biisoxazole-3,3′-dicarboxamide] are below 500 nM and below 500 nM.
For `CCNC(=O)c1noc(-c2cc(C(C)C)c(O)cc2O)c1-c1cc(C(=O)O)no1` [Compound I-26, 5-(2,4-Dihydroxy-5-isopropylphenyl)-3-(ethylcarbamoyl)-4,5′-biisoxazole-3′-carboxylic acid], in that order: above 1000 nM and above 1000 nM.
As to `CC(=O)NCc1noc(-c2cc(C(C)C)c(O)cc2O)c1-c1ccsc1` [Compound I-6, N-((5-(2,4-Dihydroxy-5-isopropylphenyl)-4-(thiophen-3-yl)isoxazol-3-yl)methyl)acetamide], the IC50 was above 1000 nM at yeast HSP90 and below 500 nM in test [1].
On the same counts, the results for `CCNC(=O)c1noc(-c2cc(C(C)C)c(O)cc2O)c1-c1cn[nH]c1` [Compound I-103, 5-(2,4-Dihydroxy-5-isopropylphenyl)-N-ethyl-4-(1H-pyrazol-4-yl)isoxazole-3-carboxamide] are below 500 nM and below 500 nM.
For `CCNC(=O)c1noc(-c2cc(C(C)C)c(O)cc2O)c1-c1noc(C2CCCCC2)n1` [Compound I-89, 4-(5-Cyclohexyl-1,2,4-oxadiazol-3-yl)-5-(2,4-dihydroxy-5-isopropylphenyl)-N-ethylisoxazole-3-carboxamide], in that order: 500 to 1000 nM and below 500 nM.
On the same counts, the results for `CCNC(=O)c1noc(-c2cc(C(C)C)c(O)cc2O)c1-c1nnn(CC)n1` [Compound I-14, 5-(2,4-Dihydroxy-5-isopropylphenyl)-N-ethyl-4-(2-ethyl-2H-tetrazol-5-yl)isoxazole-3-carboxamide] are below 500 nM and below 500 nM.

Source of the values: US20120309750A1, “5-MEMBERED HETEROCYCLE DERIVATIVES AND MANUFACTURING PROCESS THEREOF” (ILDONG PHARM CO., LTD., priority 2010, published 2012).
